Assay results taken from US8729269B2, “Substituted piperidino phenyloxazolidinones having antimicrobial activity with improved in vivo efficacy” (Wockhardt Limited, priority 2003, dated 2014).
Converted amounts (≈) assume the structure as drawn.

Legend:
[1] = test system: methicillin resistant Staphylococcus aureus strain MRSA 32; experiment: Murine Assay Procedure (in vivo efficacy, MRSA 32 infection); conditions: swiss mice infected intraperitoneally with MRSA 32, oral gavage 1 h after infection, repeat dose 3 hrs later, percentage survival on Day 7
Protocol: Oxazolidinone new chemical entities (NCEs) were evaluated for their in vivo efficacy in a murine infection caused by multi-drug resistant, methicillin resistant Staphylococcus aureus strain, referred to as MRSA 32, a clinical isolate obtained from a hospitalized patient. The procedure used for the murine assay is as follows:
Four weeks old swiss mice of 18-22 gm body weight were infected with MRSA 32 strain suspended in 5% Hog gastric mucin. The infecting dose of bacteria was set at 1-2×10^8 CFU/animal. The infecting dose was administered in 0.5 ml volume injected into peritonial cavity of mice. The treatment with oxazolidinone NCEs was started one hour after infection by administering 100-200 μl of the suspensions of oxazolidinone compounds in 5% Tween 80 by oral gavage. A repeat dose was similarly administered 3 hrs later. Each oxazolidinone NCE was tested at 2-3 different dosages in the range of 2.5 mg/kg to 20 mg/kg. In each dose group 6 mice were included. As an infection control group 12 mice were infected with MRSA 32 strain without giving any treatment. For compounds affording protection of MRSA infected mice, ED50 dosages were calculated on the basis of percentage survival on Day 7 after infection.

[2] = test system: Methicilin resistant Staphylococcus aureus 32 (MRSA 32); experiment: Minimum Inhibitory Concentration (MIC) determination, agar dilution; type: cell-based; conditions: Mueller Hinton agar, 24 hrs at 35° C.
Protocol: (§1) Overnight grown cultures of Methicilin resistant Staphylococcus aureus 32 (MRSA 32), Methicilin resistant Staphylococcus epidermidis 118 (MRSE 118), Vancomycin resistant enterococci 303 (VRE 303) in Tryptic Soya broth were diluted in Mueller Hinton Broth to give optical density matching with MacFarland tube 0.5 standard. Cultures were further diluted 1:10 in Mueller Hinton broth. Using Denley's multipoint inoculator, 10^4 cells were deposited on Mueller Hinton agar (Difco) containing range of 2 fold dilutions of test compounds. These plates were incubated for 24 hrs at 35° C. and MIC results recorded. MIC is defined as minimum drug concentration that inhibits test organisms. For determining MIC of test compounds against Streptococcus pneumoniae 49619 (SPN 49619) and Streptococcus pyogenes 801 (SPY 801), Mueller Hinton agar containing 5% sheep blood was employed.

[3] = test system: Vancomycin resistant enterococci 303 (VRE 303); experiment: as above; type: cell-based; conditions: Enterococcus, Mueller Hinton agar, 24 hrs at 35° C.
Protocol: as §1

[4] = test system: Methicilin resistant Staphylococcus epidermidis 118 (MRSE 118); experiment: as above; type: cell-based; conditions: Mueller Hinton agar, 24 hrs at 35° C.
Protocol: as §1

[5] = test system: Streptococcus pneumoniae 49619 (SPN 49619); experiment: Minimum Inhibitory Concentration (MIC) determination, agar with 5% sheep blood; type: cell-based; conditions: Mueller Hinton agar containing 5% sheep blood
Protocol: as §1

[6] = test system: Streptococcus pyogenes 801 (SPY 801); experiment: as above; type: cell-based; conditions: Mueller Hinton agar containing 5% sheep blood
Protocol: as §1

Row | MIC [2] [µg/mL] | MIC [3] [µg/mL] | MIC [4] [µg/mL] | MIC [5] [µg/mL] | MIC [6] [µg/mL] | SMILES | ED50 [1] [mg/kg]
1 | 2 (≈ 5.03 µM) | 1 (≈ 2.52 µM) | 1 (≈ 2.52 µM) | 2 (≈ 5.03 µM) | 2 (≈ 5.03 µM) | COCC1(F)CCN(c2ccc(N3C[C@H](CNC(C)=O)OC3=O)cc2F)CC1 [Example 10, (S)—N-{3-[4-(4-Fluoro-4-methoxymethylpiperidin-1-yl)-3-fluorophenyl]-2-oxo-oxazolidin-5-ylmethyl}-acetamide] | 5
2 | 1 (≈ 2.17 µM) | 2 (≈ 4.33 µM) | 0.5 (≈ 1.08 µM) | 0.25 (≈ 0.542 µM) | 0.25 (≈ 0.542 µM) | CC(=O)NC[C@H]1CN(c2ccc(N3CCC(F)(COS(C)(=O)=O)CC3)c(F)c2)C(=O)O1 [Example 12, (S)—N-{3-[4-(4-Fluoro-4-methanesulfonyloxymethylpiperidin-1-yl)-3-fluorophenyl]-2-oxo-oxazolidin-5-ylmethyl}-acetamide] | 2.5
3 | 2 (≈ 5.39 µM) | 2 (≈ 5.39 µM) | 1 (≈ 2.69 µM) | 2 (≈ 5.39 µM) | 2 (≈ 5.39 µM) | CC(=O)NC[C@H]1CN(c2ccc(N3CCC(F)(F)CC3)c(F)c2)C(=O)O1 [Example 16, (S)—N-{3-[4-(4,4-Difluoropiperidin-1-yl)-3-fluorophenyl]-2-oxo-oxazolidin-5-ylmethyl}-acetamide] | 5
4 | 8 (≈ 20.2 µM) | 4 (≈ 10.1 µM) | 4 (≈ 10.1 µM) | 2 (≈ 5.06 µM) | 2 (≈ 5.06 µM) | COCC1(O)CCN(c2ccc(N3C[C@H](CNC(C)=O)OC3=O)cc2F)CC1 [Example 33, (S)—N-{3-[4-(4-Methoxymethyl-4-hydroxypiperidin-1-yl)-3-fluorophenyl]-2-oxo-oxazolidin-5-ylmethyl}-acetamide] | 10
5 | 4 (≈ 9.42 µM) | 2 (≈ 4.71 µM) | 1 (≈ 2.36 µM) | 2 (≈ 4.71 µM) | 2 (≈ 4.71 µM) | CC(=O)NC[C@H]1CN(c2ccc(N3CCC4(CC3)NCC[S+]4[O-])c(F)c2)C(=O)O1 (stereo partly drawn) [Example 112, (S)—N-{3-[4-(4,8-diaza-1-sulfinyl-spiro[4.5]dec-8-yl)-3-fluorophenyl]-2-oxo-oxazolidin-5-ylmethyl}-acetamide] | 10
6 | 8 (≈ 18.1 µM) | > 16 | 8 (≈ 18.1 µM) | > 8 | > 8 | CS(=O)(=O)NCC1CN(c2ccc(N3CCC(O)(CN=[N+]=[N-])CC3)c(F)c2)C(=O)O1 (stereo in doubt) [Example 40, (S)—N-{3-[4-(4-Azidomethyl-4-hydroxypiperidin-1-yl)-3-fluorophenyl]-2-oxo-oxazolidin-5-ylmethyl}-methanesulfonamide] | 10
7 | 4 (≈ 9.72 µM) | 4 (≈ 9.72 µM) | 2 (≈ 4.86 µM) | 2 (≈ 4.86 µM) | 2 (≈ 4.86 µM) | CC(=O)NC[C@H]1CN(c2ccc(N3CCC4(OCCO4)C(F)C3)c(F)c2)C(=O)O1 (stereo partly drawn) [Example 133, (S)—N-{3-[4-(1,4-dioxa-6-fluoro-8-aza-spiro[4.5]dec-8-yl)-3-fluorophenyl]-2-oxo-oxazolidin-5-ylmethyl}-acetamide] | 5
8 | 2 (≈ 4.9 µM) | 2 (≈ 4.9 µM) | 1 (≈ 2.45 µM) | 2 (≈ 4.9 µM) | 2 (≈ 4.9 µM) | CC(=O)NC[C@H]1CN(c2ccc(N3CCC(F)(CN=[N+]=[N-])CC3)c(F)c2)C(=O)O1 [Example 4, (S)—N-{3-[4-(4-Fluoro-4-azidomethylpiperidin-1-yl)-3-fluorophenyl]-2-oxo-oxazolidin-5-ylmethyl}-acetamide] | 10
9 | 4 (≈ 10.6 µM) | 4 (≈ 10.6 µM) | 0.5 (≈ 1.33 µM) | 4 (≈ 10.6 µM) | 8 (≈ 21.3 µM) | CC(=O)NC[C@H]1CN(c2ccc(N3CCC(O)(C#N)CC3)c(F)c2)C(=O)O1 [Example 19, (S)—N-{3-[4-(4-Cyano-4-hydroxypiperidin-1-yl)-3-fluorophenyl]-2-oxo-oxazolidin-5-ylmethyl}-acetamide] | 5
10 | 4 (≈ 9.84 µM) | 2 (≈ 4.92 µM) | 1 (≈ 2.46 µM) | 2 (≈ 4.92 µM) | 2 (≈ 4.92 µM) | CC(=O)NC[C@H]1CN(c2ccc(N3CCC(O)(CN=[N+]=[N-])CC3)c(F)c2)C(=O)O1 [Example 25, (S)—N-{3-[4-(4-Azidomethyl-4-hydroxypiperidin-1-yl)-3-fluorophenyl]-2-oxo-oxazolidin-5-ylmethyl}-acetamide] | 5
11 | 4 (≈ 10.9 µM) | 4 (≈ 10.9 µM) | 2 (≈ 5.44 µM) | 2 (≈ 5.44 µM) | 2 (≈ 5.44 µM) | CC(=O)NC[C@H]1CN(c2ccc(N3CCC(C)(F)CC3)c(F)c2)C(=O)O1 [Example 1, (S)—N-{3-[4-(4-Fluoro-4-methylpiperidin-1-yl)-3-fluorophenyl]-2-oxo-oxazolidin-5-ylmethyl}-acetamide] | 10
12 | 1 (≈ 2.03 µM) | 2 (≈ 4.05 µM) | 1 (≈ 2.03 µM) | 1 (≈ 2.03 µM) | 1 (≈ 2.03 µM) | CC(=O)NC[C@H]1CN(c2ccc(N3CCC(F)(CI)CC3)c(F)c2)C(=O)O1 [Example 15, (S)—N-{3-[4-(4-Fluoro-4-iodomethylpiperidin-1-yl)-3-fluorophenyl]-2-oxo-oxazolidin-5-ylmethyl}-acetamide] | 10
13 | 8 (≈ 18.6 µM) | 16 (≈ 37.2 µM) | 4 (≈ 9.29 µM) | 8 (≈ 18.6 µM) | 8 (≈ 18.6 µM) | CS(=O)(=O)OC[C@H]1CN(c2ccc(N3CCC4(CC3)COCO4)c(F)c2)C(=O)O1 [Example 129, (R)—N-{3-[4-(1,3-dioxa-8-aza-spiro[4.5]dec-8-yl)-3-fluorophenyl]-2-oxo-oxazolidin-5-ylmethyl}-methanesulfonate] | 5
14 | 2 (≈ 5.18 µM) | 2 (≈ 5.18 µM) | 1 (≈ 2.59 µM) | 0.5 (≈ 1.29 µM) | 0.5 (≈ 1.29 µM) | CC(=O)NC[C@H]1CN(c2ccc(N3CCC4(CC3)C[C@@H]4C#N)c(F)c2)C(=O)O1 [Example 99, (1S,5S)—N-{3-[4-(1-cyano-6-aza-spiro[2.5]oct-6-yl)-3-fluorophenyl]-2-oxo-oxazolidin-5-ylmethyl}-acetamide] | 5
15 | 8 (≈ 20.6 µM) | 16 (≈ 41.2 µM) | 8 (≈ 20.6 µM) | > 8 | > 8 | CS(=O)(=O)OC[C@H]1CN(c2ccc(N3CCC(O)CC3)c(F)c2)C(=O)O1 [Example 172, (R)—N-{3-[4-(4-hydroxy-piperidin-1-yl)-3-fluorophenyl]-2-oxo-oxazolidin-5-ylmethyl}-methanesulfonate] | 10
16 | 0.5 (≈ 1.24 µM) | 1 (≈ 2.47 µM) | 0.25 (≈ 0.618 µM) | 0.5 (≈ 1.24 µM) | 2 (≈ 4.95 µM) | CS(=O)(=O)OC[C@H]1CN(c2cc(F)c(N3CCC(=O)CC3)c(F)c2)C(=O)O1 [Example 169, (R)—N-{3-[4-(4-oxo-piperidin-1-yl)-3,5-difluorophenyl]-2-oxo-oxazolidin-5-ylmethyl}-methanesulfonate] | 10
17 | 8 (≈ 21.9 µM) | > 32 | > 32 | > 16 | > 16 | CC(=O)NC[C@H]1CN(c2ccc(N3CCC(C)(O)CC3)c(F)c2)C(=O)O1 [Example 17, (S)—N-{3-[4-(4-Methyl-4-hydroxypiperidin-1-yl)-3-fluorophenyl]-2-oxo-oxazolidin-5-ylmethyl}-acetamide] | 10
18 | 8 (≈ 18.7 µM) | 8 (≈ 18.7 µM) | 8 (≈ 18.7 µM) | 16 (≈ 37.3 µM) | 16 (≈ 37.3 µM) | C=CCC1(O)CCN(c2ccc(N3C[C@H](COS(C)(=O)=O)OC3=O)cc2F)CC1 [Example 41] | 10
